In one assay the target is T1, HCV NS3-4A serine protease (full-length NS3-4A protein, genotype 1a, strain HCV-1) (Hepatitis C virus genotype 1a, UniProt P26664).
T1 construct: using the full-length NS3-4A protein (genotype 1a, strain HCV-1)
T1 sequence (P26664 1658-1711): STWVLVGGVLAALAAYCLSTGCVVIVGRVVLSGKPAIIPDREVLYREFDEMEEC
T1 sequence (P26664 1027-1657): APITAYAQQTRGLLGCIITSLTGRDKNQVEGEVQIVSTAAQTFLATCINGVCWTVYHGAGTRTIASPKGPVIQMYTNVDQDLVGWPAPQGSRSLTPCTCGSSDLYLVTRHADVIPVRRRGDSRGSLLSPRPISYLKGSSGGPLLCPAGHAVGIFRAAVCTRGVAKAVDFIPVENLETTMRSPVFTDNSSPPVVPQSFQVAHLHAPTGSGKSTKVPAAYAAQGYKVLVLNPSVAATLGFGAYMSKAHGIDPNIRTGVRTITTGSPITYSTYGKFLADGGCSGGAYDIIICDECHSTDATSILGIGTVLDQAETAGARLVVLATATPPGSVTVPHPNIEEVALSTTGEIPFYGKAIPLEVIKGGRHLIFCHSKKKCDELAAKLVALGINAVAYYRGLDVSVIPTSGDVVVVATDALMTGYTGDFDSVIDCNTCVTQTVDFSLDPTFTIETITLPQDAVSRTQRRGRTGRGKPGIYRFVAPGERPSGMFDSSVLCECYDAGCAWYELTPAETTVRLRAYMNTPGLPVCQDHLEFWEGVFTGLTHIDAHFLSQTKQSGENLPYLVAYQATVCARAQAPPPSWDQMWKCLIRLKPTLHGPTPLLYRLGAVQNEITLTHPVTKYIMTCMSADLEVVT
Description: HCV NS3-4A protease assay. It counts as biochemical. The following applies: Protease IC50. Here is the method: The inhibitory activity of certain compounds of Table A against HCV NS3-4A serine protease is determined in a homogenous assay using the full-length NS3-4A protein (genotype 1a, strain HCV-1) and a commercially available internally-quenched fluorogenic peptide substrate as described by Taliani, M., et al. 1996 Anal. Biochem. 240:60-67, which is incorporated by reference in its entirety.
For the compound `CC(C)(C)[C@H](NC(=O)C1CCCCN1CCF)C(=O)N[C@H](C(=O)N1C[C@]2(C[C@H]1C(=O)N[C@]1(C(=O)NS(=O)(=O)C3CC3)CC=CCC1)C(C)(C)C21CCC1)C(C)(C)C` (stereo partly drawn) [Compound 28, (5R,8S)-N-{(1S)-1-[(cyclopropylsulfonyl)carba-moyl]cyclohex-3-en-1-yl}-7-[(2S)-2-{[(2S)-2-({[1-(2-fluoroethyl)piperidin-2-yl]carbonyl}amino)-3,3-dimethylbutanoyl]amino}-3,3-dimethylbutanoyl]-10,10-dimethyl-7-azadispiro[3.0.4.1]decane-8-carboxamide], the IC50 (usually the point on the concentration scale where inhibition reaches its midpoint) was 3150 nM.
In turn, `CC(C)N1CCCC[C@H]1C(=O)N[C@H](C(=O)N[C@H](C(=O)N1C[C@]2(CC1C(=O)NC1(C(=O)NS(=O)(=O)C3CC3)CC1(C)C)C(C)(C)C21CCC1)C(C)(C)C)C(C)(C)C` (stereo partly drawn) [Compound 15, (5R)-N-{1-[(cyclopropylsulfonyl)carba-moyl]-2,2-dimethylcyclopropyl}-7-[(2S)-2-{[(2S)-2-({[(2S)-1-isopropylpiperidin-2-yl]carbonyl}amino)-3,3-dimethylbutanoyl]amino}-3,3-dimethylbutanoyl]-10,10-dimethyl-7-azadispiro[3.0.4.1]decane-8-carboxamide] gave an IC50 of 3700 nM.
Consider `C=C[C@@H]1C[C@]1(NC(=O)[C@@H]1C[C@@]2(CN1C(=O)[C@@H](NC(=O)[C@@H](NC(=O)c1ccno1)C(C)(C)C)C(C)(C)C)C(C)(C)C21CCC1)C(=O)NS(=O)(=O)C1CC1` [Compound 121, (5R,8S)-N-{(1R,2S)-1-[(cyclopropylsulfonyl)carba-moyl]-2-vinylcyclopropyl}-7-[(2S)-2-({(2S)-2-[(isoxazol-5-ylcarbonyl)amino]-3,3-dimethylbutanoyl}amino)-3,3-dimethylbutanoyl]-10,10-dimethyl-7-azadispiro[3.0.4.1]decane-8-carboxamide], for which the midpoint of inhibition, the IC50, lay at 9 nM.
On the same count and under the same terms, the same measure for `C=C[C@@H]1C[C@]1(NC(=O)[C@@H]1C[C@@]2(CN1C(=O)[C@@H](NC(=O)[C@@H](NC(=O)c1cncnc1)C1CCCCC1)C(C)(C)C)C(C)(C)C21CCC1)C(=O)NS(=O)(=O)C1CC1` [Compound 116, (5R,8S)-7-[(2S)-2-({(2S)-2-cyclohexyl-2-[(pyrimidin-5-ylcarbonyl)amino]acetyl}amino)-3,3-dimethylbutanoyl]-N-{(1R,2S)-1-[(cyclopropylsulfonyl)carba-moyl]-2-vinylcyclopropyl}-10,10-dimethyl-7-azadispiro[3.0.4.1]decane-8-carboxamide]: 0.6 nM; for `C=C[C@@H]1C[C@]1(NC(=O)[C@@H]1C[C@@]2(CN1C(=O)[C@@H](NC(=O)[C@@H](NC(=O)C(C)(C)N1CCCCC1)C(C)(C)C)C(C)(C)C)C(C)(C)C21CCC1)C(=O)NS(=O)(=O)C1CC1` [Compound 119, (5R,8S)-N-{(1R,2S)-1-[(cyclopropylsulfonyl)carba-moyl]-2-vinylcyclopropyl}-7-[(2S)-2-({(2S)-3,3-dimethyl-2-[(2-methyl-2-piperidin-1-ylpropanoyl)amino]butanoyl}amino)-3,3-dimethylbutanoyl]-10,10-dimethyl-7-azadispiro[3.0.4.1]decane-8-carboxamide]: 3.5 nM.
With `C=C[C@@H]1C[C@]1(NC(=O)[C@@H]1C[C@@]2(CN1C(=O)[C@@H](NC(=O)[C@@H](NC(=O)c1cnccn1)C(C)(C)C)C(C)(C)C)C(C)(C)C21CCC1)C(=O)NS(=O)(=O)C1CC1` [Compound 100, (5R,8S)-N-{(1R,2S)-1-[(cyclopropylsulfonyl)carba-moyl]-2-vinylcyclopropyl}-7-[(2S)-2-({(2S)-3,3-dimethyl-2-[(pyrazin-2-ylcarbonyl)amino]butanoyl}amino)-3,3-dimethylbutanoyl]-10,10-dimethyl-7-azadispiro[3.0.4.1]decane-8-carboxamide], 4 nM corresponded to half-maximal inhibition (IC50).
The compound `C=C[C@@H]1C[C@]1(NC(=O)[C@@H]1C[C@@]2(CN1C(=O)[C@@H](NC(=O)[C@@H](NC(=O)c1ccncc1)C1CCCCC1)C(C)(C)C)C(C)(C)C21CCC1)C(=O)NS(=O)(=O)C1CC1` [Compound 96, (5R,8S)-7-[(2S)-2-{[(2S)-2-cyclohexyl-2-(isonicotinoylamino)acetyl]amino}-3,3-dimethylbutanoyl]-N-{(1R,2S)-1-[(cyclopropylsulfonyl)carba-moyl]-2-vinylcyclopropyl}-10,10-dimethyl-7-azadispiro[3.0.4.1]decane-8-carboxamide] returned an IC50 of 1 nM.
The same measure, in the same setting: the same measure for `C=C[C@H]1C[C@@]1(NC(=O)[C@@H]1C[C@@]2(CN1C(=O)[C@@H](NC(=O)[C@@H](NC(=O)[C@@H]1CCCO1)C1CCCCC1)C(C)(C)C)C(C)(C)C21CCC1)C(=O)NS(=O)(=O)C1CC1` [Compound 108, (5R,8S)-7-{(2S)-2-[(cyclohexyl{[(2S)-tetrahydrofuran-2-ylcarbonyl]amino}acetyl)amino]-3,3-dimethylbutanoyl}-N-{(1R,2S)-1-[(cyclopropylsulfonyl)carba-moyl]-2-vinylcyclopropyl}-10,10-dimethyl-7-azadispiro[3.0.4.1]decane-8-carboxamide]: 2.5 nM; for `C=C[C@@H]1C[C@]1(NC(=O)[C@@H]1C[C@@]2(CN1C(=O)[C@@H](NC(=O)[C@@H](NC(=O)N(C)C)C(C)(C)C)C(C)(C)C)C(C)(C)C21CCC1)C(=O)NS(=O)(=O)C1CC1` [Compound 56, (5R,8S)-N-{(1R,2S)-1-[(cyclopropylsulfonyl)carba-moyl]-2-vinylcyclopropyl}-7-[(2S)-2-({(2S)-2-[(dimethylcarbamoyl)amino]-3,3-dimethylbutanoyl}amino)-3,3-dimethylbutanoyl]-10,10-dimethyl-7-azadispiro[3.0.4.1]decane-8-carboxamide]: 50 nM; for `C=C[C@@H]1C[C@]1(NC(=O)[C@@H]1C[C@@]2(CN1C(=O)[C@@H](NC(=O)[C@@H](NC(=O)[C@@H]1CCCCN1CC)C1CCCCC1)C(C)(C)C)C(C)(C)C21CCC1)C(=O)NS(=O)(=O)C(F)(F)F` [Compound 79, (5R,8S)-7-[(2S)-2-{[(2S)-2-cyclohexyl-2-({[(2S)-1-ethylpiperidin-2-yl]carbonyl}amino)acetyl]amino}-3,3-dimethylbutanoyl]-10,10-dimethyl-N-[(1R,2S)-1-{[(trifluoromethyl)sulfonyl]carbamoyl}-2-vinylcyclopropyl]-7-azadispiro[3.0.4.1]decane-8-carboxamide]: 2 nM.

Still in this assay, the particulars now being: read-out: Protease IC50.
For `C=C[C@@H]1C[C@]1(NC(=O)[C@@H]1C[C@@]2(CN1C(=O)[C@@H](NC(=O)N[C@H](C(=O)N1CCOCC1)C(C)(C)C)C(C)(C)C)C(C)(C)C21CCC1)C(=O)NS(=O)(=O)C1CC1` [Compound 31, (5R,8S)-N-{(1R,2S)-1-[(cyclopropylsulfonyl)carba-moyl]-2-vinylcyclopropyl}-7-[(2S)-2-({[(1S)-2,2-dimethyl-1-(morpholin-4-ylcarbonyl)propyl]carbamoyl}amino)-3,3-dimethylbutanoyl]-10,10-dimethyl-7-azadispiro[3.0.4.1]decane-8-carboxamide], the IC50 amounted to 15 nM.
As to `C=C[C@@H]1C[C@]1(NC(=O)[C@@H]1C[C@@]2(CN1C(=O)[C@@H](NC(=O)N[C@H](C(=O)NC)C(C)(C)C)C(C)(C)C)C(C)(C)C21CCC1)C(=O)NS(=O)(=O)C1CC1` [Compound 32, (5R,8S)-N-{(1R,2S)-1-[(cyclopropylsulfonyl)carba-moyl]-2-vinylcyclopropyl}-7-[(2S)-2-({[(1S)-2,2-dimethyl-1-(methylcarbamoyl)propyl]carbamoyl}amino)-3,3-dimethylbutanoyl]-10,10-dimethyl-7-azadispiro[3.0.4.1]decane-8-carboxamide], the IC50 worked out at 30 nM.
Take `C=C[C@@H]1C[C@]1(NC(=O)[C@@H]1C[C@@]2(CN1C(=O)[C@@H](NC(=O)N[C@H](CC(=O)N(C)C)C(C)(C)C)C(C)(C)C)C(C)(C)C21CCC1)C(=O)NS(=O)(=O)C1CC1` [Compound 33, (5R,8S)-N-{(1R,2S)-1-[(cyclopropylsulfonyl)carba-moyl]-2-vinylcyclopropyl}-7-{(2S)-2-[({(1R)-1-[2-(dimethylamino)-2-oxoethyl]-2,2-dimethylpropyl}carbamoyl)amino]-3,3-dimethylbutanoyl}-10,10-dimethyl-7-azadispiro[3.0.4.1]decane-8-carboxamide]: the concentration for half-maximal inhibition (IC50) was found to be 1400 nM.
Still for that read-out and setting: for `C=C[C@@H]1C[C@]1(NC(=O)[C@@H]1C[C@@]2(CN1C(=O)[C@@H](NC(=O)N[C@H](CN(C)S(=O)(=O)c1ccccn1)C(C)(C)C)C(C)(C)C)C(C)(C)C21CCC1)C(=O)NS(=O)(=O)C1CC1` [Compound 18, (5R,8S)-N-{(1R,2S)-1-[(cyclopropylsulfonyl)carba-moyl]-2-vinylcyclopropyl}-7-[(2S)-2-({[(1S)-2,2-dimethyl-1-{[methyl(pyridin-2-ylsulfonyl)amino]methyl}prop-yl]carbamoyl}amino)-3,3-dimethylbutanoyl]-10,10-dimethyl-7-azadispiro[3.0.4.1]decane-8-carboxamide] the value was 3 nM; for `C=C[C@@H]1C[C@]1(NC(=O)[C@@H]1C[C@@]2(CN1C(=O)[C@@H](NC(=O)[C@@H](NS(=O)(=O)c1ncn[nH]1)C(C)(C)C)C(C)(C)C)C(C)(C)C21CCC1)C(=O)NS(=O)(=O)C1CC1` [Compound 49, (5R,8S)-N-{(1R,2S)-1-[(cyclopropylsulfonyl)carba-moyl]-2-vinylcyclopropyl}-7-[(2S)-2-({(2S)-3,3-dimethyl-2-[(1H-1,2,4-triazol-5-ylsulfonyl)amino]butanoyl}amino)-3,3-dimethylbutanoyl]-10,10-dimethyl-7-azadispiro[3.0.4.1]decane-8-carboxamide], 200 nM.

The values are drawn from US20110182850A1, “ORGANIC COMPOUNDS AND THEIR USES” (priority 2009, published 2011).
